Patent publication US20130345199A1, “1-[M-CARBOXAMIDO(HETERO)ARYL-METHYL]-PIPERIDINE-4-CARBOXAMIDE DERIVATIVES” (Actelion Pharmaceuticals Ltd., priority 2012, published 2013)

Target: T1, CXCR7 (Homo sapiens, UniProt P25106)
T1 construct: host or cells: CHO-K1 (PathHunter CXCR7 b-arrestin cell line, stably transfected)
Test: PathHunter CHO-K1 CXCR7 b-arrestin assay (agonistic activity)
Format: cell-based
Settings: PathHunter CHO-K1 CXCR7 b-arrestin cell line, 90 minutes at 37° C.
Method: The […] receptor and CXCR7 agonistic activities of the compounds of formula (I) are determined in accordance with the following experimental method.
The assay is using the PathHunter™ CHO-K1 CXCR7 b-arrestin cell line from DiscoverX. The system is based on the Enzyme Fragment Complementation Technology. Two complementing fragments of the b-galactosidase enzyme are expressed within stably transfected cells. The larger portion of b-gal, termed EA for Enzyme Acceptor, is fused to the C-terminus of b-arrestin 2. The smaller fragment, termed ProLink™ tag, is fused to CXCR7 at the C-terminus. Upon activation, b-arrestin is recruited which forces the interaction of ProLink and EA, allowing complementation of the two fragments of b-gal and the formation of a functional enzyme which is capable of hydrolysing the substrate and generating a chemiluminescent signal.
CHO-K1 CXCR7 b-arrestin cells are detached from culture dishes with a cell dissociation buffer (Invitrogen, #13151-014) and collected in growing medium (F12HAMS 90% (v/v)/FCS 10% (v/v), Penicilin/streptomycin 1% (v/v)). 5000 cells per well (in 20 μl) are seeded in a 384 well plate (white-walled, clear bottom; BD Falcon #353274). The plate is incubated at 37° C./5% CO2 for 24 hours. Medium is then replaced by […] (Invitrogen #31985) for 3 to 4 hours. Test compounds are dissolved at 10 mM in DMSO and serially diluted in DMSO to 200× of the final concentration for dose response curves. Compounds are then diluted 1:33.3 in HBSS1X. 5 μl/well of HBSS1X/20 mM HEPES/0.2% BSA are added to the assay plate followed by addition of 5 μl/well of diluted compounds. CXCL12 (Peprotech #300-28A) may be used as a reference agonist. The plate is incubated for 90 minutes at 37° C. 12 μl of detection reagent (Path Hunter Detection Kit, DiscoveRx, #93-0001) is transferred to the assay plate and to the plate is incubated for 1 hour at room temperature. Luminescent signal is read in a microplate reader (FLUOstar Optima, bmg). The calculated EC50 values may fluctuate depending on the daily cellular assay performance. Fluctuations of this kind are known to those skilled in the art.

T1 sequence (P25106 whole entry): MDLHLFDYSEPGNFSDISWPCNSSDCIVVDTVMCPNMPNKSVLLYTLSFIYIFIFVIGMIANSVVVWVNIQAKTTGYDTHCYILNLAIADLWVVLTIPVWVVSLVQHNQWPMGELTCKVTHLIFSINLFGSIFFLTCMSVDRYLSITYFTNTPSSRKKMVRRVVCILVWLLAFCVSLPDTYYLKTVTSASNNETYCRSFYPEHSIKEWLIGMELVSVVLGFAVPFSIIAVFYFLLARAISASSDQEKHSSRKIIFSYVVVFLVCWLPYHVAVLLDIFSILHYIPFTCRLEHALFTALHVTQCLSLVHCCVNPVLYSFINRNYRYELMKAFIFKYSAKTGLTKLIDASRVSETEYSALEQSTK

Compound | EC50 [nM]
O=C(Nc1cncc(CN2CCC(C(=O)NC3CCCCC3)CC2)c1)c1ccc(Cl)cc1 [Example 3.004, 1-[5-(4-Chloro-benzoylamino)-pyridin-3-ylmethyl]-piperidine-4-carboxylic acid cyclohexylamide] | 36
CC(NC(=O)C1CCN(Cc2cccc(NC(=O)c3ccc(Cl)cc3)c2)CC1)C1CCCCC1 (racemic) [Example 2.016] | 134
CCC(CC)NC(=O)C1CCN(Cc2cccc(NC(=O)c3cncc(C)c3)c2)CC1 [Example 2.040] | 8
O=C(Nc1cccc(CN2CCC(C(=O)NC3CCc4ccccc43)CC2)c1)c1ccc(Cl)cc1 (racemic) [Example 2.020] | 21
O=C(Nc1cccc(CN2CCC(C(=O)NCc3ccccn3)CC2)c1)c1ccc(Cl)cc1 [Example 2.022] | 20
COc1cncc(C(=O)Nc2cccc(CN3CCC(C(=O)NC4CCCC4)CC3)c2)c1 [Example 4.013, N-[3-(4-Cyclopentylcarbamoyl-piperidin-1-ylmethyl)-phenyl]-5-methoxy-nicotinamide] | 9
O=C(Nc1ccnc(CN2CCC(C(=O)NC3CCCCC3)CC2)c1)c1ccc(Cl)cc1 [Example 3.007, 1-[4-(4-Chloro-benzoylamino)-pyridin-2-ylmethyl]-piperidine-4-carboxylic acid cyclohexylamide] | 28
CC(C)CNC(=O)C1CCN(Cc2cccc(NC(=O)c3cccc(C(F)(F)F)n3)c2)CC1 [Example 2.071] | 2
CCN(CC)C(=O)C1CCN(Cc2cccc(NC(=O)c3ccc(Cl)cc3)c2)CC1 [Example 2.009] | 1
O=C(Nc1cc(CN2CCC(C(=O)NC3CCCCC3)CC2)ccn1)c1ccc(F)cc1 [Example 3.001, 1-[2-(4-Fluoro-benzoylamino)-pyridin-4-ylmethyl]-piperidine-4-carboxylic acid cyclohexylamide] | 24
CC(C)(C)NC(=O)C1CCN(Cc2cc(NC(=O)c3cccc(C(F)(F)F)n3)ccc2F)CC1 [Example 4.017, 6-Trifluoromethyl-pyridine-2-carboxylic acid [3-(4-tert-butylcarbamoyl-piperidin-1-ylmethyl)-4-fluoro-phenyl]-amide] | 2
CC(C)(NC(=O)C1CCN(Cc2cccc(NC(=O)c3ccc(Cl)cc3)c2)CC1)c1ccccc1 [Example 2.017] | 219
COc1cncc(C(=O)Nc2cccc(CN3CCC(C(=O)NC4CCCCC4)CC3)c2)c1 [Example 4.012, N-[3-(4-Cyclohexylcarbamoyl-piperidin-1-ylmethyl)-phenyl]-5-methoxy-nicotinamide] | 10
CC(C)(CO)NC(=O)C1CCN(Cc2cccc(NC(=O)c3cccc(C(F)(F)F)n3)c2)CC1 [Example 2.091] | 6
CCCCCCNC(=O)C1CCN(Cc2cccc(NC(=O)c3cccc(C(F)(F)F)n3)c2)CC1 [Example 2.078] | 257
Cc1cncc(C(=O)Nc2cccc(CN3CCC(C(=O)NC4CC4)CC3)c2)c1 [Example 2.037] | 82
Cc1cncc(C(=O)Nc2ccc(F)c(CN3CCC(C(=O)NC(C)(C)C)CC3)c2)c1 [Example 4.019, N-[3-(4-tert-Butylcarbamoyl-piperidin-1-ylmethyl)-4-fluoro-phenyl]-5-methyl-nicotinamide] | 8
O=C(Nc1cccc(CN2CCC(C(=O)NC3CCCc4ccccc43)CC2)c1)c1ccc(Cl)cc1 (racemic) [Example 2.019] | 40
CCCN(C)C(=O)C1CCN(Cc2cccc(NC(=O)c3cncc(C)c3)c2)CC1 [Example 2.056] | 6
O=C(Nc1cccc(CN2CCC(C(=O)NCc3cccc(Cl)c3)CC2)c1)c1ccc(Cl)cc1 [Example 2.027] | 442
O=C(Nc1cccc(CN2CCC(C(=O)NCc3ccncc3)CC2)c1)c1ccc(Cl)cc1 [Example 2.021] | 218
CC1CCC(NC(=O)C2CCN(Cc3cccc(NC(=O)c4cccc(C(F)(F)F)n4)c3)CC2)CC1 (centres unmarked) [Example 2.083] | 3

Compound | EC50 [nM]
CCN(CC)C(=O)C1CCN(Cc2cccc(NC(=O)c3cccs3)c2)CC1 [Example 2.074] | 70
rac-2-Methyl-pyrimidine-4-carboxylic acid {3-[1-(4-cyclohexylcarbamoyl-piperidin-1-yl)-ethyl]-phenyl}-amide [Example 1.197] | 15
O=C(Nc1cccc(CN2CCC(C(=O)NC3(CO)CCCC3)CC2)c1)c1ccc(Cl)cc1 [Example 2.032] | 5
Cc1cncc(C(=O)Nc2cccc(CN3CCC(C(=O)NC4CCCCC4)C3)c2)c1 (centres unmarked) [Example 2.063] | 92
Cc1cncc(C(=O)Nc2cccc(CN3CCC(C(=O)NC(C)(C)C)CC3)c2)c1 [Example 2.039] | 3
CC(C)(C)NC(=O)C1CCN(Cc2cccc(NC(=O)c3ccc(F)c[n+]3[O-])c2)CC1 [Example 4.007, 5-Fluoro-1-oxy-pyridine-2-carboxylic acid [3-(4-tert-butylcarbamoyl-piperidin-1-ylmethyl)-phenyl]-amide] | 3
Cc1cncc(C(=O)Nc2cccc(CN3CCC(F)(C(=O)NC(C)(C)C)CC3)c2)c1 [Example 4.002, N-[3-(4-tert-Butylcarbamoyl-4-fluoro-piperidin-1-ylmethyl)-phenyl]-5-methyl-nicotinamide] | 16
O=C(Nc1cccc(CN2CCC(C(=O)NCc3ccccc3)CC2)c1)c1ccc(Cl)cc1 [Example 2.035] | 45
Cc1cncc(C(=O)Nc2csc(CN3CCC(C(=O)NC(C)(C)C)CC3)c2)c1 [Example 3.013, N-[5-(4-tert-Butylcarbamoyl-piperidin-1-ylmethyl)-thiophen-3-yl]-5-methyl-nicotinamide] | 13
Cc1cncc(C(=O)Nc2cccc(CN3CCCC(C(=O)NCC4CC4)CC3)c2)c1 (racemic) [Example 2.084] | 304
Cc1cncc(C(=O)Nc2cccc(CN3CCC(C(=O)N4CC[C@H](F)C4)CC3)c2)c1 [Example 2.053] | 195
O=C(Nc1cccc(CN2CCC(C(=O)NC3CCC3)CC2)c1)c1ccc(Cl)cc1 [Example 2.007] | 1
CNC(=O)C1CCN(Cc2cccc(NC(=O)c3ccc(Cl)cc3)c2)CC1 [Example 2.002] | 3
O=C(Nc1cccc(CN2CCC(C(=O)NCc3ccccc3Cl)CC2)c1)c1ccc(Cl)cc1 [Example 2.025] | 17
CCCCCCN(C)C(=O)C1CCN(Cc2cccc(NC(=O)c3cccc(C(F)(F)F)n3)c2)CC1 [Example 2.079] | 226
O=C(Nc1cccc(CN2CCC(C(=O)NC3CCCCC3)CC2)c1)c1ccc(Cl)cc1 [Example 1.001, 1-[3-(4-Chloro-benzoylamino)-benzyl]-piperidine-4-carboxylic acid cyclohexylamide] | 2
CC(C)(C)C1CCC(NC(=O)C2CCN(Cc3cccc(NC(=O)c4ccc(Cl)cc4)c3)CC2)CC1 (centres unmarked) [Example 2.012] | 1050
CCC(CO)NC(=O)C1CCN(Cc2cccc(NC(=O)c3cccc(C(F)(F)F)n3)c2)CC1 (centres unmarked) [Example 2.065] | 26
O=C(Nc1cccc(CN2CCC(C(=O)NCC3CCCCC3)CC2)c1)c1ccc(Cl)cc1 [Example 2.015] | 46
O=C(Nc1cccc(CN2CCC(C(=O)NC3CCCCC3)CC2)c1)c1ccc(F)c[n+]1[O-] [Example 4.005, 5-Fluoro-1-oxy-pyridine-2-carboxylic acid [3-(4-cyclohexylcarbamoyl-piperidin-1-ylmethyl)-phenyl]-amide] | 4
CCC(C)(C)NC(=O)C1CCCN(Cc2cccc(NC(=O)c3cncc(C)c3)c2)CC1 (racemic) [Example 2.085] | 68
O=C(Nc1cccc(CN2CCC(C(=O)NC3CC3)CC2)c1)c1ccc(Cl)cc1 [Example 2.006] | 2
